Experimental data published in patent US20230053540A1, “TREATMENT OF LIVER INJURY” (Massachusetts Institute of Technology, priority 2019, published 2023).

System: hepatocytes
Assay: Seq-Well scRNA-Seq of hepatocytes after APAP overdose (signature scores, DEG vs untreated)
Assay type: in vivo, mouse
Conditions: A6 vs UT

CC(=O)Nc1ccc(O)cc1 [APAP, acetaminophen]
Ddc avg_logFC: −0.3608
Ddc pct.1: 0.241
Ddt avg_logFC: −0.5222
Ddx3x avg_logFC: 0.6569
Ddx3y A6logFC: 0.3395
Ddx5 avg_logFC: 0.5229
Ddx6 avg_logFC: 0.4443
Ddx6 pct.1: 0.527
Ddx21 avg_logFC: 0.7314
Ddx27 A6logFC: 0.2522
Ddx27 avg_logFC: 0.2522
Ddx27 pct.1: 0.286
Deb1 A6logFC: −0.267
Deb1 avg_logFC: −0.267
Deb1 pct.1: 0.274
Dera A6logFC: −0.2674
Dera avg_logFC: −0.2674
Dera pct.1: 0.32
Derl2 A6logFC: −0.3317
Dgkd avg_logFC: 0.3708
Dgkd pct.1: 0.282
Dhrs3 avg_logFC: −0.4676
Dhrs3 pct.1: 0.198
Dhrs4 A6logFC: −0.3321
Diap1 A6logFC: 0.3259
Diap1 avg_logFC: 0.3259
Diap1 pct.1: 0.382
Dio1 avg_logFC: −0.5453
Dio1 pct.1: 0.253
Dkc1 avg_logFC: 0.3258
Dkc1 pct.1: 0.315
Dnaja2 A6logFC: 0.3723
Dnajc5 A6logFC: 0.3265
Dnajc19 A6logFC: −0.316
Dot1l avg_logFC: 0.397
Dot1l pct.1: 0.282
Dsp A6logFC: 0.2655
Dsp avg_logFC: 0.2655
Dsp pct.1: 0.32
Dst avg_logFC: 0.511
Dst pct.1: 0.43
Dusp5 avg_logFC: 0.2964
Dusp6 avg_logFC: 0.5916
Dusp16 avg_logFC: 0.4605
Dusp16 pct.1: 0.372
Dync1h1 A6logFC: 0.3796
Eaf1 avg_logFC: 0.5218
Eaf1 pct.1: 0.427
Ebpl avg_logFC: −0.4503
Ebpl pct.1: 0.196
Eea1 A6logFC: 0.2612
Eea1 avg_logFC: 0.2612
Eea1 pct.1: 0.363
Efhd2 avg_logFC: 0.5838
Egr1 avg_logFC: 0.5846
Egr1 pct.1: 0.589
Eif1a avg_logFC: 0.7953
Eif3a avg_logFC: 0.3147
Eif3a pct.1: 0.542
Eif4a1 A6logFC: 0.2519
Eif4a1 avg_logFC: 0.2519
Eif4a1 pct.1: 0.418
Eif4b A6logFC: 0.3682
Eif4ebp1 A6logFC: 0.2617
Eif4ebp1 avg_logFC: 0.2617
Eif4ebp1 pct.1: 0.387
Eif4g1 avg_logFC: 0.3749
Eif4g1 pct.1: 0.723
Eif4g2 avg_logFC: 0.5597
Eifia A6logFC: 0.3147
Eifib A6logFC: 0.2503
Eific A6logFC: 0.302
Ell2 avg_logFC: 0.4172
Ell2 pct.1: 0.535
Elovl3 avg_logFC: −0.5067
Elovl3 pct.1: 0.568
Elovl5 A6logFC: 0.3352
Elovl5 avg_logFC: 0.3352
Elovl5 pct.1: 0.63
Epas1 avg_logFC: 0.7758
Epb4.1 avg_logFC: 0.5628
Epb4.1 pct.1: 0.537
Erf3b avg_logFC: 0.2503
Erf3b pct.1: 0.449
Errfi1 avg_logFC: 0.3937
Errfi1 pct.1: 0.943
Etnppl avg_logFC: 0.4182
Etnppl pct.1: 0.706
Ets2 avg_logFC: 0.6956
Fabp1 avg_logFC: −1.016
Fabp2 avg_logFC: −0.6156
Fam25c A6logFC: −0.2977
Fam107b avg_logFC: 0.4633
Fam107b pct.1: 0.449
Fam134b avg_logFC: 0.8936
Fam195a A6logFC: −0.2649
Fam214a A6logFC: −0.2658
Fbxo21 A6logFC: −0.2631
Fcgr3 avg_logFC: 0.3082
Fcgr3 pct.1: 0.107
Fdps A6logFC: −0.2663
Fdx1 avg_logFC: −0.6234
Fga avg_logFC: 0.6934
Fgb avg_logFC: 0.6469
Fgg avg_logFC: 0.6153
Fitm1 avg_logFC: −0.3242
Fitm1 pct.1: 0.012
Fkbp5 avg_logFC: 0.5161
Fndc3b avg_logFC: 0.4096
Fndc3b pct.1: 0.315
Fpgs avg_logFC: −0.3494
Fpgs pct.1: 0.146
Ftsj3 A6logFC: 0.2552
Ftsj3 avg_logFC: 0.2552
Ftsj3 pct.1: 0.346
Furin avg_logFC: 0.2536
Furin pct.1: 0.477
Fus A6logFC: 0.3393
Fxyd1 avg_logFC: −0.4799
Fxyd1 pct.1: 0.432
Fxyd5 avg_logFC: 0.2743
G6pc avg_logFC: −0.9601
Gabarap avg_logFC: −0.4425
Gabarap pct.1: 0.518
Gadd45a A6logFC: 0.2829
Gadd45a avg_logFC: 0.2829
Gadd45a pct.1: 0.251
Gadd45gip1 A6logFC: −0.3041
Gamt avg_logFC: −0.5603
Gars A6logFC: 0.2576
Gars avg_logFC: 0.2576
Gars pct.1: 0.334
Gcat A6logFC: −0.2587
Gcat avg_logFC: −0.2587
Gcat pct.1: 0.315
Gcgr A6logFC: −0.2576
Gcgr avg_logFC: −0.2576
Gcgr pct.1: 0.446
Gch1 avg_logFC: −0.2691
Gch1 pct.1: 0.461
Gclc avg_logFC: 1.903
Gclm avg_logFC: 0.2699
Gclm pct.1: 0.695
Gcnt2 avg_logFC: 0.5375
Gda A6logFC: 0.2663
Gda avg_logFC: 0.2663
Gda pct.1: 0.243
Gfra1 avg_logFC: 0.3864
Gfra1 pct.1: 0.599
Gjb2 avg_logFC: 0.6082
Gldc A6logFC: 0.2802
Gldc avg_logFC: 0.2802
Gldc pct.1: 0.465
Glo1 avg_logFC: −0.4066
Glo1 pct.1: 0.513
Glyat avg_logFC: −0.6477
Glyctk A6logFC: 0.2977
Gm4952 avg_logFC: −0.4987
Gm4952 pct.1: 0.198
Gm5424 A6logFC: 0.2698
Gm5424 avg_logFC: 0.2698
Gm5424 pct.1: 0.411
Gm13775 avg_logFC: −1.066
Gm15564 avg_logFC: 1.443
Gm20594 A6logFC: 0.2957
Gm23388 avg_logFC: 0.4162
Gm23388 pct.1: 0.222
Gm23935 avg_logFC: 0.4242
Gm23935 pct.1: 0.878
Gm24187 avg_logFC: 0.4319
Gm24187 pct.1: 0.2
Gm24601 avg_logFC: 0.4684
Gm26917 avg_logFC: 0.6012
Gm26917 pct.1: 0.382
Gm26924 avg_logFC: 1.161
Gn13 avg_logFC: 0.576
Gnai2 A6logFC: 0.2817
Gnai2 avg_logFC: 0.2817
Gnai2 pct.1: 0.391
Gnas A6logFC: 0.2589
Gnas avg_logFC: 0.2589
Gnas pct.1: 0.79
Gne avg_logFC: −0.4251
Gne pct.1: 0.263
Gnl2 avg_logFC: 0.3905
Gnl2 pct.1: 0.384
Gnmt avg_logFC: −0.3334
Gnmt pct.1: 0.962
Golga4 avg_logFC: 0.3521
Gpt2 avg_logFC: 0.5391
Gpx1 avg_logFC: −0.7686
Grn avg_logFC: 0.5408
Gsk3b avg_logFC: 0.4065
Gsk3b pct.1: 0.384
Gsr A6logFC: 0.4128
Gsta1 avg_logFC: 0.4076
Gstk1 A6logFC: −0.2828
Gstk1 avg_logFC: −0.2828
Gstk1 pct.1: 0.351
Gstm3 avg_logFC: −0.4111
Gstm3 pct.1: 0.265
Gstz1 avg_logFC: −0.4641
